Laboratory results reported in patent US20130345182A1, “STABLE COMPOSITION COMPRISING CHOLESTEROL-LOWERING AGENTS, […] AGENTS AND […] AGENTS” (Silanes Laboratories, priority 2010, published 2013).

Experiments:
[1] = Determination of drugs content stability under extreme storage conditions; type: physicochemical
Protocol: The compositions from Example 1 were subjected to extreme storage conditions.
These conditions were maintained for a month, as follows: temperature 40° C. and 75% relative humidity (RH) and at temperature of 60° C. and 85% RH.
Then, the determination of the contents of each of the drugs was performed.

Long-term stability test = type: physicochemical
Protocol: The compositions of the present invention can be formulated into tablets which are packed in Aluminum-Aluminum blisters and subjected to stability studies according to ICH international guidelines (International Conference of Harmonization, Guideline for Industry, Stability Testing of New Drug Substances and Products. ICH Q1A (R2) February 2003).
Long-term stability studies were conducted on a batch from the composition of the present invention manufactured in accordance with that described in Example 1 but with the addition of coloring agent; these studies were conducted in selected conditions of temperature and humidity, which were 30° C. and 75% RH, and a temperature of 25° C. and 60% RH, showing that the pharmaceutical composition is stable according to the results exemplified in Table 3 up to 9 months, although the study was conducted under the regulatory guidelines for a longer period.

[2] = Dissolution profile of tablets; type: physicochemical
Source text: Assessment of the composition of the present invention formulated into tablets was made, as described in Example 1 to determine their dissolution profiles, according to methods widely known in the industry, in order to evaluate the release of drugs.

[3] = patients with type 2 diabetes mellitus and proteinuria; cited from earlier work
clinical = settings: human
[4] = cited from earlier work
[5] = 0 months, 30° C./75% RH or 25° C./60% RH (not said which)

Drug content ([1]; 1 Month 40° C./75% RH) [%]	Drug content ([1]; 1 Month 60° C./85% RH) [%]	Drug content ([1]; Initial) [%]	Dissolution (Long-term stability test; 0 months) [%]	Content (Long-term stability test; [5]) [%]	Content (Long-term stability test; 1 month) [%]	Dissolution (Long-term stability test; 1 month) [%]	Content (Long-term stability test; 3 months) [%]	Dissolution (Long-term stability test; 3 months) [%]	Content (Long-term stability test; 6 months) [%]	Dissolution (Long-term stability test; 6 months) [%]	Content (Long-term stability test; 9 months) [%]	Dissolution (Long-term stability test; 9 months) [%]	Average of % dissolved ([2]; 10 minutes) [%]	Average of % dissolved ([2]; 20 minutes) [%]	Average of % dissolved ([2]; 30 minutes) [%]	Average of % dissolved ([2]; 40 minutes) [%]	Average of % dissolved ([2]; 50 minutes) [%]	Average of % dissolved ([2]; 60 minutes) [%]	concentration at 0 h (clinical; in vivo) [ng/mL]	Compound	also measured
96.45	96.05	94.63	88.75	98.70	101.00	78.38	98.54	83.57	98.67	87.60	95.14	81.66	12	34	56	73	84	88	–	CC(=O)Oc1ccccc1C(=O)O [Acetylsalicylic acid, acetylsalicylic acid]	–
96.31	96.64	95.88	103.01	100.32	99.24	95.28	98.50	96.38	99.85	92.77	95.33	91.66	60	100	102	102	103	104	0	CCCCc1nc(Cl)c(CO)n1Cc1ccc(-c2ccccc2-c2nn[nH]n2)cc1 [Losartan potassium, losartan potassium]	Progression of renal disease [3]: delays the progression of renal disease; concentration at 0.17 h (clinical; in vivo): 39.7 ng/mL; concentration at 0.33 h (clinical; in vivo): 137 ng/mL; concentration at 0.5 h (clinical; in vivo): 191 ng/mL; concentration at 0.75 h (clinical; in vivo): 176 ng/mL; concentration at 1 h (clinical; in vivo): 140 ng/mL; concentration at 2 h (clinical; in vivo): 113 ng/mL; concentration at 2.5 h (clinical; in vivo): 96.3 ng/mL; concentration at 3 h (clinical; in vivo): 81.5 ng/mL; concentration at 4 h (clinical; in vivo): 57.5 ng/mL; concentration at 6 h (clinical; in vivo): 38.7 ng/mL; concentration at 7 h (clinical; in vivo): 21.8 ng/mL; concentration at 8 h (clinical; in vivo): 12.4 ng/mL; concentration at 10 h (clinical; in vivo): 6.01 ng/mL; concentration at 12 h (clinical; in vivo): 3.06 ng/mL
98.72	98.23	99.76	99.79	98.89	98.04	94.77	95.83	98.09	98.77	95.97	99.97	93.37	61	104	105	106	107	108	0	CC[C@H](C)C(=O)O[C@H]1C[C@H](O)C=C2C=C[C@H](C)[C@H](CC[C@@H](O)C[C@@H](O)CC(=O)O)[C@H]21 [Pravastatin sodium, pravastatin sodium]	concentration at 0.17 h (clinical; in vivo): 2.8 ng/mL; concentration at 0.33 h (clinical; in vivo): 24.9 ng/mL; concentration at 0.5 h (clinical; in vivo): 72.6 ng/mL; concentration at 0.75 h (clinical; in vivo): 113 ng/mL; concentration at 1 h (clinical; in vivo): 110 ng/mL; concentration at 2 h (clinical; in vivo): 77 ng/mL; concentration at 2.5 h (clinical; in vivo): 58 ng/mL; concentration at 3 h (clinical; in vivo): 42.5 ng/mL; concentration at 4 h (clinical; in vivo): 25.8 ng/mL; concentration at 6 h (clinical; in vivo): 16.2 ng/mL; concentration at 7 h (clinical; in vivo): 9.73 ng/mL; concentration at 8 h (clinical; in vivo): 13.3 ng/mL; concentration at 10 h (clinical; in vivo): 6.53 ng/mL; concentration at 12 h (clinical; in vivo): 1.71 ng/mL; concentration at 24 h (clinical; in vivo): 1.27 ng/mL; Incidence of type 2 diabetes mellitus, lower than in placebo group ([4]; patients administered pravastatin vs placebo): 30%; Reduction of incidence of cerebral thrombosis ([4]; patients): ≤ 20%
–	–	–	–	–	–	–	–	–	–	–	–	–	–	–	–	–	–	–	–	O=C(O)c1ccccc1O [Salicylic acid]	concentration at 0 h (clinical; plasma, oral): 0 ng/mL; concentration at 0.17 h (clinical; plasma, oral): 1.09 ng/mL; concentration at 0.33 h (clinical; plasma, oral): 3.97 ng/mL; concentration at 0.5 h (clinical; plasma, oral): 8.78 ng/mL; concentration at 0.75 h (clinical; plasma, oral): 14.8 ng/mL; concentration at 1 h (clinical; plasma, oral): 21.1 ng/mL; concentration at 2 h (clinical; plasma, oral): 28.8 ng/mL; concentration at 2.5 h (clinical; plasma, oral): 36.5 ng/mL; concentration at 3 h (clinical; plasma, oral): 43.3 ng/mL; concentration at 4 h (clinical; plasma, oral): 49.2 ng/mL; concentration at 6 h (clinical; plasma, oral): 50.2 ng/mL; concentration at 7 h (clinical; plasma, oral): 45.4 ng/mL; concentration at 8 h (clinical; plasma, oral): 25.1 ng/mL; concentration at 10 h (clinical; plasma, oral): 12.5 ng/mL; concentration at 12 h (clinical; plasma, oral): 4.21 ng/mL; concentration at 24 h (clinical; plasma, oral): 1.16 ng/mL
